A short description of data set [1]: Transepithelial transport study. The conditions noted are these: dog, MDCK-MDR1, 37 °C, n = 3. The format is in vitro ADME, canine. As to the method: The permeabilities of CAT3 and OA-CAT3-SLN were investigated on an MDCK-MDR1 cell monolayer. MDCK-MDR1 cells were seeded onto 12-well transwell® filter inserts (pore size 0.4 μm, surface area 1.12 cm^2; Corning Incorporated, Corning, NY, USA) at a density of 2 × 10^5 cells/well. The culture medium was changed every 24 h for seven days, and the cell monolayers with a transepithelial electrical resistance (TEER) above 110 Ω·cm^2 were used for the transport experiments. Prior to performing the TEER test, the culture medium was removed, and the monolayer was pre-incubated with 0.5 mL of Hanks’ balanced salt solution (HBSS) for 20 min at 37 °C. […]
To investigate the mechanism of cellular internalization of OA-CAT3-SLN, various specific endocytic inhibitors were evaluated in the uptake study. […]
The amount of CAT3 or OA-CAT3-SLN that permeated that through the monolayer was determined using the liquid chromatography-mass spectrometry (LC-MS/MS) system. The apparent permeability coefficient (Papp) of CAT3 or OA-CAT3-SLN was calculated according to the following equation: Papp = dQ/dt × 1/(A × C0), where dQ/dt indicates the linear appearance rate of mass at the BL side (μmol/s), C0 is the initial concentration of CAT3 or OA-CAT3-SLN on the AP side (μmol/mL), and A is the surface area of the monolayer (cm^2).

For a further data set, the system named is C6 glioma cells. Put plainly: In vitro cytotoxicity analysis (MTT assay). The format is cell-based. The conditions noted are these: 0.64 ng/mL. As to the method: Cytotoxicity of the CAT3 suspension, OA-CAT3-SLN, and blank SLN against the C6 brain glioma cell line was measured by 3-(4,5-dimethylthiazol-2-yl)-2,5 diphenyltetrazolium bromide (MTT) assay. Briefly, the cells were seeded into 96-well plates at a cell density of 2 × 10^4 cells/mL (100 μL/well). After 24 h of incubation, the cells were further incubated for 24, 48, and 72 h in fresh DMEM complete medium containing 0.64 ng/mL CAT3 suspension, OA-CAT3-SLN, or the blank SLN, respectively. At the above-mentioned time points, the culture medium was replaced by the MTT solution (0.5 mg/mL, 200 μL/well), followed by incubation for further 4 h. The supernatant was removed and 100 μL of DMSO solution was added to the wells. The absorbance values of each well were measured at 570 nm using a microplate reader (Synergy H1 Hybrid Multi-Mode Microplate Reader, BioTek, Winooski, VT, USA).

Data set [2] is described as follows: In vitro release under simulated gastrointestinal conditions (dialysis bag). The conditions noted are these: 0.1% SDS medium, 37 °C. The format is physicochemical. How it is done:
Drug release from SLN was monitored in vitro under simulated gastrointestinal conditions. The tests were performed by placing 2 mL SLN samples (containing 2 mg CAT3) into 400 mL of the dissolution medium maintained at 37 °C. The dissolution media contained 0.1% SDS (w/v) to meet sink conditions. Preswollen 8–10 kDa MWCO dialysis bags (Sigma-Aldrich, Madrid, Spain), which contained 5 mL of the blank SDS solution with the same concentration, were placed into the dissolution flask (n = 3). The release behavior of CAT3 was compared under the same condition by placing 5 mg CAT3 powder into the 1000 mL media. The samples (1 mL) were withdrawn at predetermined time points from the dialysis bags and replaced with the same amount of fresh medium maintained at 37 °C. The samples were centrifuged for 5 min at 12,000 rpm, and the resultant supernatants were quantified for drug content. The samples were protected from light during the experiments. The DDsolver software was used to evaluate the drug-release kinetics. An Excel worksheet (Microsoft Corporation, Redmond, WA, USA) was used to control the computing method for comparison with the results obtained using the DDSolver program. According to the example format for each built-in module of the DDSolver, all data were entered into Excel. The relevant parameters were calculated following the step-by-step equations utilizing an Excel spreadsheet.

The next data set relates to P-gp. Also on record: method as in PMID 25936609, PMID 35547992. As to conditions: cited from earlier work.
The test system of another data set is human cell lines. The conditions noted are these: versus pro-drug CAT3; cited from earlier work.

This is an account of results in paper PMC7076672, “Improving the Oral Bioavailability of an Anti-Glioma Prodrug CAT3 Using Novel Solid Lipid Nanoparticles Containing Oleic Acid-CAT3 Conjugates” (Pharmaceutics, 2020).

Structures are written as SMILES. Like-named read-outs stand apart in the source and are kept apart here.

Consider `COc1cc2c3c(c4ccc(OC(=O)C(C)(C)C)cc4c2cc1OC)C[C@@H]1CCCN1C3` [CAT3, 13a-(S)-3-pivaloyloxyl-6,7-dimethoxyphenanthro(9,10-b)-indolizidine], for which the Papp A→B at 2 h, 100 ng/mL in data set [1] is 0.106 ± 0.0289 ×10⁻⁶ cm/s. The viability at 0.00064 µg/mL is 81.2% in the data set with C6 glioma cells (24 h, n = 3, read-out: cell viability 24 h); 46.2% in the data set with C6 glioma cells (48 h, n = 3, read-out: cell viability 48 h); 16.5% with C6 glioma cells (72 h, n = 3, read-out: cell viability 72 h). In addition, in data set [2], the “CAT3 released in the first 24 h” value is recorded as “more than 80%”.
In the case of `COc1cc2c3c(c4ccc(O)cc4c2cc1OC)C[C@@H]1CCCN1C3` [PF403, 13a(S)-3-hydroxyl-6,7-dimethoxyphenanthro(9,10-b)-indolizidine], the P-gp substrate entry in the data set on P-gp is reported as “substrate of P-gp”. Further, the “in vitro antitumor activity, times greater than CAT3” value with human cell lines was “about 1000 times”.
